Measurements: patent publication US6355799B1, “Substituted benzene compounds, process for their preparation, and herbicidal and defoliant compositions containing them” (ISK Americas Incorporated, priority 1997, dated 2002)

Assays:
Assay type in all cases: in vivo
[1] = system: field corn (Zea mays L., var. Dekalb 535, CORN); assay: Post-emerge test, crop safety; conditions: post-emerge, 14 days after application, rating scale 0-100
In short: (§1)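 Each test used a mechanized track sprayer delivering 187 l/ha of acetone solution at 15–1000 g ai/ha. Post-emerge foliage at 2–3 leaves was treated with added 0.25% v/v non-ionic surfactant and bottom-watered only. Injury was assessed on day 14, where 100 means total kill.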

[2] = system: upland rice (Oryza sp., var. Tebonnet, RICE); assay: Post-emerge test, crop safety; conditions: post-emerge, 14 days after application, rating scale 0-100
In short: as §1

[3] = system: sicklepod (Cassia obtusifolia, CASOB); assay: Pre-emerge test, greenhouse herbicide activity screening; conditions: pre-emerge, 14 days after application, rating scale 0-100
In short: (§2)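 Plants grown in 10 cm pots of sandy loam mix received acetone-dissolved compounds through a moving flat-fan nozzle. Doses ranged from 15 to 1000 g ai/ha. Pre-emerge pots were seeded one day earlier, post-emerge pots 8–21 days earlier. Fourteen days on, each pot was graded 0–100 for damage.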

[4] = system: velvetleaf (Abutilon theophrasti, ABUTH); assay: as above; conditions: pre-emerge, 14 days after application, rating scale 0-100
In short: as §2

[5] = system: barnyardgrass (Echinochloa crus-galli, ECHCG); assay: as above; conditions: pre-emerge, 14 days after application, rating scale 0-100
In short: as §2

[6] = system: green foxtail (Setaria viridis, SETVI); assay: as above; conditions: pre-emerge, 14 days after application, rating scale 0-100
In short: as §2

[7] = system: large crabgrass (Digitaria sanguinalis, DIGSA); assay: as above; conditions: pre-emerge, 14 days after application, rating scale 0-100
In short: as §2

[8] = system: lambsquarters (Chenopodium album, CHEAL); assay: as above; conditions: pre-emerge, 14 days after application, rating scale 0-100
In short: as §2

[9] = system: ivyleaf morningglory (Ipomoea hederacea, IPOHE); assay: as above; conditions: pre-emerge, 14 days after application, rating scale 0-100
In short: as §2

[10] = system: johnsongrass (Sorghum halepense, SORHA); assay: as above; conditions: pre-emerge, 14 days after application, rating scale 0-100
In short: as §2

[11] = system: sicklepod (Cassia obtusifolia, CASOB); assay: Post-emerge test, greenhouse herbicide activity screening; conditions: post-emerge, 14 days after application, rating scale 0-100
In short: (§3)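 Herbicidal damage is scored 0 (none) to 100 (complete plant death) two weeks after a simulated field spray. Rates span 15–1000 g ai/ha, delivered in acetone at 187 l/ha. For post-emergence treatments, plants have 2–3 leaves and the spray carries 0.25% v/v non-ionic surfactant.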

[12] = system: velvetleaf (Abutilon theophrasti, ABUTH); assay: as above; conditions: post-emerge, 14 days after application, rating scale 0-100
In short: as §3

[13] = system: barnyardgrass (Echinochloa crus-galli, ECHCG); assay: as above; conditions: post-emerge, 14 days after application, rating scale 0-100
In short: as §3

[14] = system: green foxtail (Setaria viridis, SETVI); assay: as above; conditions: post-emerge, 14 days after application, rating scale 0-100
In short: as §3

[15] = system: large crabgrass (Digitaria sanguinalis, DIGSA); assay: as above; conditions: post-emerge, 14 days after application, rating scale 0-100
In short: as §3

[16] = system: redroot pigweed (Amaranthus retroflexus, AMARE); assay: as above; conditions: post-emerge, 14 days after application
In short: as §3

[17] = system: lambsquarters (Chenopodium album, CHEAL); assay: as above; conditions: post-emerge, 14 days after application, rating scale 0-100
In short: as §3

[18] = system: ivyleaf morningglory (Ipomoea hederacea, IPOHE); assay: as above; conditions: post-emerge, 14 days after application, rating scale 0-100
In short: as §3

[19] = system: johnsongrass (Sorghum halepense, SORHA); assay: as above; conditions: post-emerge, 14 days after application, rating scale 0-100
In short: as §3

[20] = system: redroot pigweed (Amaranthus retroflexus, AMARE); assay: Pre-emerge test, greenhouse herbicide activity screening; conditions: pre-emerge, 14 days after application, rating scale 0-100
In short: as §3

[21] = system: field corn (Zea mays L., var. Dekalb 535, CORN); assay: Pre-emerge test, crop safety; conditions: pre-emerge, 14 days after application, rating scale 0-100
In short: as §3

[22] = system: upland rice (Oryza sp., var. Tebonnet, RICE); assay: Pre-emerge test, crop safety; conditions: pre-emerge, 14 days after application, rating scale 0-100
In short: as §3

COc1c(Cl)cc(F)c(-n2c(=O)cc(C(F)(F)F)n(C)c2=O)c1SC [Compound 17-1, 3-(4-chloro-6-fluoro-3-methoxy-2-thiomethylphenyl)l-methyl-6-trifluoromethyl-2,4(1H, 3H)-pyrimidinedione]
Post-emerge Herbicidal Activity CORN (crop damage rating) ([1]; 63 g ai/ha): 0
Post-emerge Herbicidal Activity CORN (crop damage rating) ([1]; 250 g ai/ha): 5
Post-emerge Herbicidal Activity RICE (crop damage rating) ([2]; 63 g ai/ha): 0
Post-emerge Herbicidal Activity RICE (crop damage rating) ([2]; 250 g ai/ha): 0
phytotoxicity rating CASOB ([3]; 63 g ai/ha): 0
phytotoxicity rating CASOB ([3]; 250 g ai/ha): 80
phytotoxicity rating ABUTH ([4]; 63 g ai/ha): 95
phytotoxicity rating ABUTH ([4]; 250 g ai/ha): 100
phytotoxicity rating ECHCG ([5]; 63 g ai/ha): 0
phytotoxicity rating ECHCG ([5]; 250 g ai/ha): 70
phytotoxicity rating SETVI ([6]; 63 g ai/ha): 50
phytotoxicity rating SETVI ([6]; 250 g ai/ha): 80
phytotoxicity rating DIGSA ([7]; 63 g ai/ha): 20
phytotoxicity rating DIGSA ([7]; 250 g ai/ha): 80
phytotoxicity rating CHEAL ([8]; 63 g ai/ha): 90
phytotoxicity rating CHEAL ([8]; 250 g ai/ha): 100
phytotoxicity rating IPOHE ([9]; 63 g ai/ha): 10
phytotoxicity rating IPOHE ([9]; 250 g ai/ha): 70
phytotoxicity rating SORHA ([10]; 63 g ai/ha): 0
phytotoxicity rating SORHA ([10]; 250 g ai/ha): 60
Post-emerge Herbicidal Activity CASOB (phytotoxicity rating) ([11]; 63 g ai/ha): 20
Post-emerge Herbicidal Activity CASOB (phytotoxicity rating) ([11]; 250 g ai/ha): 10
Post-emerge Herbicidal Activity ABUTH (phytotoxicity rating) ([12]; 63 g ai/ha): 70
Post-emerge Herbicidal Activity ABUTH (phytotoxicity rating) ([12]; 250 g ai/ha): 70
Post-emerge Herbicidal Activity ECHCG (phytotoxicity rating) ([13]; 63 g ai/ha): 0
Post-emerge Herbicidal Activity ECHCG (phytotoxicity rating) ([13]; 250 g ai/ha): 0
Post-emerge Herbicidal Activity SETVI (phytotoxicity rating) ([14]; 63 g ai/ha): 0
Post-emerge Herbicidal Activity SETVI (phytotoxicity rating) ([14]; 250 g ai/ha): 0
Post-emerge Herbicidal Activity DIGSA (phytotoxicity rating) ([15]; 63 g ai/ha): 0
Post-emerge Herbicidal Activity DIGSA (phytotoxicity rating) ([15]; 250 g ai/ha): 0
Post-emerge Herbicidal Activity AMARE (phytotoxicity rating) ([16]; 63 g ai/ha, rating scale 0-100 (0 no damage, 100 complete death)): 10
Post-emerge Herbicidal Activity AMARE (phytotoxicity rating) ([16]; 250 g ai/ha, rating scale 0-100): 30
Post-emerge Herbicidal Activity CHEAL (phytotoxicity rating) ([17]; 63 g ai/ha): 30
Post-emerge Herbicidal Activity CHEAL (phytotoxicity rating) ([17]; 250 g ai/ha): 60
Post-emerge Herbicidal Activity IPOHE (phytotoxicity rating) ([18]; 63 g ai/ha): 80
Post-emerge Herbicidal Activity IPOHE (phytotoxicity rating) ([18]; 250 g ai/ha): 80
Post-emerge Herbicidal Activity SORHA (phytotoxicity rating) ([19]; 63 g ai/ha): 0
Post-emerge Herbicidal Activity SORHA (phytotoxicity rating) ([19]; 250 g ai/ha): 0
phytotoxicity rating AMARE ([20]; 63 g ai/ha): 30
phytotoxicity rating AMARE ([20]; 250 g ai/ha): 90
phytotoxicity rating CORN ([21]; 63 g ai/ha): 0
phytotoxicity rating CORN ([21]; 250 g ai/ha): 10
phytotoxicity rating RICE ([22]; 63 g ai/ha): 10
phytotoxicity rating RICE ([22]; 250 g ai/ha): 30
